On this data set, the source says: Solubility may be determined by measuring the amount of light transmittance (a light transmittance value) through a simple mixture of the non-volatile silicone fluid and liquid activation enhancer at the same weight/weight concentrations as in a final antiperspirant composition.
Solubility of a liquid activation enhancer in a non-volatile silicone may be determined by measuring the amount of light transmittance (light transmittance value) through a simple mixture of the non-volatile silicone fluid and liquid activation enhancer at the same weight/weight concentrations as in a final antiperspirant composition.
The Spectronic Genesys 10 Vis utilizes a tungsten-halogen light source and has a spectral bandwidth of 5 nm, a wavelength range of 325 to 1100 nm, accuracy of ±1 nm and a repeatability of ±0.5 nm. Readouts include absorbance, transmittance and concentration. The spectrophotometer is set to 640 nm wavelength and the percent transmittance mode/readout. Polystyrene spectrometer cuvettes having a 1 cm optical light path and transmittance between ˜340 nm and ˜900 nm are used. One suitable example of a spectrometer cuvette is available from VWR International LLC under Catalog #97000-584 having a 2.5 to 4.5 ml capacity. The spectrophotometer is calibrated according to the manufacturer's instructions using a reference cuvette and composition comprised of just the non-volatile silicone fluid of interest. For example, if the test composition comprises 50 centistoke dimethicone and 15% w/w of isopropyl myristate, then the spectrometer is calibrated using a cuvette containing just 50 centistoke dimethicone. Sample cuvettes are filled sufficiently with a test composition of a non-volatile silicone fluid and liquid activation enhancer so that the light path of the spectrophotometer passes through the test composition in the cuvette. The sample cuvettes are shaken well just prior to taking a light transmittance reading.
Regarding `CCCCCCCCCCCCCCCCCC(=O)OCCCC` [butyl stearate], the light transmittance value result is listed as “about 100%”.

With `CCCCCCCCCCCCCC(C)C` [isohexadecane], the light transmittance value result is listed as “about 100%” and the “solubility in 50 centistoke dimethicone” value is recorded as “soluble”.

For the compound `CCCCCCCCCCCCCC(=O)OC(C)C` [isopropyl myristate], the light transmittance value entry is on record as “about 101%”.

With `CCCCCCCCCCCCCCCC(=O)OC(C)C` [isopropyl palmitate], the light transmittance value result is reported as “about 101%”.

In the case of `CCCCCCCCCCC(CO)CCCCCCCC` (centres unmarked) [octyldodecanol], the “solubility in 50 centistoke dimethicone” value was “soluble in the 50 centistoke dimethicone at some (lower) concentrations”.

With PPG-14 butyl ether, the “solubility in 50 centistoke dimethicone” value was “insoluble”.

With mineral oil, the “solubility in 50 centistoke dimethicone” value is “soluble in 50 centistoke dimethicone at some (lower) concentrations”.

The values above are taken from patent US20150020916A1, “Antiperspirant Spray Devices and Compositions” (The Procter & Gamble Company, priority 2013, published 2015).
